Results published in paper PMC10828444, “Selective inhibition of overactive warmth-sensitive Ca^2+-permeable TRPV3 channels by antispasmodic agent flopropione for alleviation of skin inflammation” (The Journal of Biological Chemistry, 2023).

What was measured:
TRPV3-F666A mutant = biological target: T1, TRPV3-F666A mutant (Homo sapiens, UniProt Q8NET8, F666A); assay: Whole-cell and single-channel recordings of TRPV3-F666A mutant; type: cell-based; conditions: 100 μM flopropione whole-cell (50 μM 2-APB); 50 μM single-channel (30 μM 2-APB)
T1 construct: expressed in transfected cells; host or cells: HEK293
T1 sequence (Q8NET8 1-790 F666A): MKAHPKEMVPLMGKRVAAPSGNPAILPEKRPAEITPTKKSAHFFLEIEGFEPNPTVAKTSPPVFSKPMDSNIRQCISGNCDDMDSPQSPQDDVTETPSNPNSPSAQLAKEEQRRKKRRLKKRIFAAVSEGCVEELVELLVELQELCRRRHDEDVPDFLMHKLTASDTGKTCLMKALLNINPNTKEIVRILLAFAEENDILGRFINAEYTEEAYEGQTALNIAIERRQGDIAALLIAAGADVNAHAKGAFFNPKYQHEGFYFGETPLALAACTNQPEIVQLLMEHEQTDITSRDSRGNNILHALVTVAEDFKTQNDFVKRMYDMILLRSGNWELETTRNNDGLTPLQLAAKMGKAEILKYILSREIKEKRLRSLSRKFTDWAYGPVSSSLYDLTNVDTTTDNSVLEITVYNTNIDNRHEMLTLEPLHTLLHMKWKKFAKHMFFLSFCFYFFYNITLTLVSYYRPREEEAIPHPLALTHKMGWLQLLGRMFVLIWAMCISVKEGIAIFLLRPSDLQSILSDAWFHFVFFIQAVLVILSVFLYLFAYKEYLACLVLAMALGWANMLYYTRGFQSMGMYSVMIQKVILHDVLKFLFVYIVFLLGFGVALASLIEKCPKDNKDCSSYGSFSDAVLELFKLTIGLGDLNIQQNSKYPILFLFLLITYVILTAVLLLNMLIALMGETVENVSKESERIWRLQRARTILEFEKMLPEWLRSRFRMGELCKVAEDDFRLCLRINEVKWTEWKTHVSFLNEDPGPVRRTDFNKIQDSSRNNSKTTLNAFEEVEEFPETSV
Experimental: HEK293 cells were cultured in Dulbecco’s modified Eagle’s medium (DMEM, Gibco) containing 4.5 g/L D-glucose supplemented with 10% fetal bovine serum based at 37 °C with 5% CO2. For whole-cell patch-clamp recordings, cells were grown in glass coverslips for 24 h before transient transfections with 3000 ng cDNAs of hTRPV3 (gene accession number BC104866.1), hTRPV1 (accession number NM_080704.3), mTRPV2 (accession number NM_011706.2), hTRPV4 (accession number NM_021625.5), hTRPA1 (accession number NM_007332.3) and hTRPM8 (accession number NM_024080.5) into HEK293 cells grown in a 35-mm cell culture dish using Lipofectamine 2000 (Invitrogen). Cells were used 18 ∼ 24 h after transfection. All WT or mutant hTRPV3 plasmids were validated by DNA sequencing.
Whole-cell patch clamp recordings of wild-type and mutants were carried out at room temperature using the HEKA EPC10 amplifier powered by PatchMaster software (HEKA) or MultiClamp 700B amplifier driven by Clampex 11.0.3 software. The borosilicate glass pipettes were pulled and fire-polished to 3∼6 MΩ using a DMZ universal electrode puller (Zeitz-Instruments, GmbH). Pipette solution and bath solution both contained (in mM): 130 NaCl, three HEPES, and 0.2 EDTA (pH = 7.4). Cell membrane potential was held at 0 mV, currents were recorded at a voltage ramp from −100 to +100 mV for 500-ms and analyzed at ±80 mV. […]

[1] = test system: DNFB-induced dorsal skin inflammation; assay: Mouse model of dorsal skin inflammation (atopic dermatitis) induced by DNFB; type: in vivo, C57BL/6J mice
Experimental: Mice were placed in a gas anesthesia device (SurgiVet) for anesthesia before the hair on the back was removed with a razor, followed by the application of an appropriate amount of hair removal cream to gently shave off the remaining hair. For generation of atopic dermatitis and ear swelling, chemical skin sensitizer DNFB (1-Fluoro-2,4-dinitrobenzene), commonly known as Sanger’s Reagent, was dissolved in a solvent (acetone/olive oil = 4/1, v/v) and 0.5% DNFB in 100 μl was applied once topically to the back and right ear for skin sensitization 1 day after acclimatization for hair removal ([43]) without any treatment for next 3 days. On the fifth and sixth days, 0.2% DNFB in 50 μl was applied topically once a day for 2 days for challenge before different concentrations of flopropione in 100 μl were topically applied once a day for four consecutive days. First application of topical flopropione started half an hour after the last application of 0.2% DNFB challenge. For the effect of flopropione on skin inflammation, topical flopropione (0.1 mM, 1 mM or 10 mM) in 100 μl was applied into ear and shaved area of dorsal skin by swabbing once a day for four consecutive days.
The score contents and criteria include (1): skin erythematous/bleeding (2), skin scratches/erosion (3), skin edema (4), skin scaling or lichenoid change ([44]). Each symptom was scored from 0 to 3 (none, 0; mild, one; moderate, two; severe, (3). The final score was defined as the sum of individual scores on a scale from 0 to 12. Mouse ear thickness was measured once a day for continuous 5 days with the first measurement of ear thickness 30 min after the last application of 0.2% DNFB using vernier caliper.
Mice were anesthetized with 1.0% isoflurane before sacrifice 24 h after the last treatment ([31], [32], [43]). Mouse dorsal skin was removed with scissors and forceps before fixed with 4% paraformaldehyde. Paraffin-embedded tissues were sectioned and stained with hematoxylin and eosin. Stained sections were observed using bright-field microscopy (ECLIPSE Ti-S, Nikon) and CCD-camera (DS-Ri2, Nikon).

effect of F666A mutation on flopropione-mediated inhibition (TRPV3-F666A mutant): no effect
Structure (SMILES): CCC(=O)c1c(O)cc(O)cc1O [flopropione]
dorsal skin inflammation (phenotype) ([1]; topical 0.1–10 mM, once a day for 4 days, vs DNFB alone): alleviated the skin inflammation in concentration-dependent manner
dermatitis scores ([1]; topical 0.1–10 mM, vs DNFB alone group, n = 5): significantly reduced the dermatitis scores
skin hyperkeratosis and lesion (histology, dorsal skin thickness) ([1]; topical 0.1 ∼ 10 mM, H&E sections, vs DNFB alone): reduced mouse skin hyperkeratosis and lesion
